Laboratory results reported in ChEMBL document CHEMBL1201862, “PubChem BioAssay data set” (2004).
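Cells were grown in 96-well plates and exposed to each compound for 48 hours at five concentrations; endpoints were interpolated linearly between bracketing concentrations, or set to the highest concentration if not reached. At the GI50, growth is halved.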 Active and inactive are the calls of the source. Cut-off read from the data, not from the text of the source: active = GI50 up to about 1.1 µM and inactive = higher.

Assays:
Experiment in all cases: NCI-60 cell line screen, 48 h
DLD-1 = system: DLD-1
SNB-78 = system: SNB-78
SK-MEL-28 = system: SK-MEL-28
SK-MEL-5 = system: SK-MEL-5
RXF 393 = system: RXF 393
OVCAR-5 = system: OVCAR-5
HCT-116 = system: HCT-116
HOP-18 = system: HOP-18
HT-29 = system: HT-29
OVCAR-8 = system: OVCAR-8
A549 = system: A549
M14 = system: M14
U-251 = system: U-251
NCI-H460 = system: NCI-H460
UO-31 = system: UO-31
HCC 2998 = system: HCC 2998
TK-10 = system: TK-10
OVCAR-4 = system: OVCAR-4
NCI-H23 = system: NCI-H23
HL-60 = system: HL-60
NCI-H522 = system: NCI-H522
LXFL 529 = system: LXFL 529
LOX IMVI = system: LOX IMVI
K562 = system: K562
MOLT-4 = system: MOLT-4
KM12 = system: KM12
CCRF-CEM = system: CCRF-CEM
M19-MEL = system: M19-MEL
SK-MEL-2 = system: SK-MEL-2
786-0 = system: 786-0
SF-295 = system: SF-295
UACC-257 = system: UACC-257
IGROV-1 = system: IGROV-1
SF-539 = system: SF-539
HOP-62 = system: HOP-62
SK-OV-3 = system: SK-OV-3
SNB-75 = system: SNB-75
CAKI-1 = system: CAKI-1
OVCAR-3 = system: OVCAR-3
HOP-92 = system: HOP-92
COLO 205 = system: COLO 205
KM-20L2 = system: KM-20L2
XF498 = system: XF498
SN12C = system: SN12C
DMS-114 = system: DMS-114
SNB-19 = system: SNB-19
SW-620 = system: SW-620
Malme-3M = system: Malme-3M
HCT-15 = system: HCT-15
ACHN = system: ACHN
A498 = system: A498
SF-268 = system: SF-268
EKVX = system: EKVX
NCI-H226 = system: NCI-H226
UACC-62 = system: UACC-62
RPMI-8226 = system: RPMI-8226

SMILES: Cc1ccc(NC(=O)C2C(=O)N(c3ccc(C)c(C)c3)C(=O)/C2=N\NC(N)=O)cc1C (stereo not drawn)
- GI50 (DLD-1): > 100 µM (inactive)
- GI50 (SNB-78): > 100 µM (inactive)
- GI50 (SK-MEL-28): > 100 µM (inactive)
- GI50 (SK-MEL-5): > 100 µM (inactive)
- GI50 (RXF 393): > 100 µM (inactive)
- GI50 (OVCAR-5): > 100 µM (inactive)
- GI50 (HCT-116): 85.3 µM (inactive)
- GI50 (HOP-18): 7.85 µM (inactive)
- GI50 (HT-29): > 100 µM (inactive)
- GI50 (OVCAR-8): 62.2 µM (inactive)
- GI50 (A549): 52.8 µM (inactive)
- GI50 (M14): > 100 µM (inactive)
- GI50 (U-251): 57.3 µM (inactive)
- GI50 (NCI-H460): > 100 µM (inactive)
- GI50 (UO-31): 57.4 µM (inactive)
- GI50 (HCC 2998): > 100 µM (inactive)
- GI50 (TK-10): > 100 µM (inactive)
- GI50 (OVCAR-4): > 100 µM (inactive)
- GI50 (NCI-H23): 42.8 µM (inactive)
- GI50 (HL-60): 81.5 µM (inactive)
- GI50 (NCI-H522): 55.1 µM (inactive)
- GI50 (LXFL 529): 59.7 µM (inactive)
- GI50 (LOX IMVI): > 100 µM (inactive)
- GI50 (K562): 52.7 µM (inactive)
- GI50 (MOLT-4): 88.9 µM (inactive)
- GI50 (KM12): > 100 µM (inactive)
- GI50 (CCRF-CEM): 73.8 µM (inactive)
- GI50 (M19-MEL): > 100 µM (inactive)
- GI50 (SK-MEL-2): 96.4 µM (inactive)
- GI50 (786-0): > 100 µM (inactive)
- GI50 (SF-295): 86.9 µM (inactive)
- GI50 (UACC-257): > 100 µM (inactive)
- GI50 (IGROV-1): 89.5 µM (inactive)
- GI50 (SF-539): > 100 µM (inactive)
- GI50 (HOP-62): > 100 µM (inactive)
- GI50 (SK-OV-3): > 100 µM (inactive)
- GI50 (SNB-75): > 100 µM (inactive)
- GI50 (CAKI-1): > 100 µM (inactive)
- GI50 (OVCAR-3): 38.4 µM (inactive)
- GI50 (HOP-92): 63.5 µM (inactive)
- GI50 (COLO 205): > 100 µM (inactive)
- GI50 (KM-20L2): > 100 µM (inactive)
- GI50 (XF498): > 100 µM (inactive)
- GI50 (SN12C): 77.3 µM (inactive)
- GI50 (DMS-114): 56.9 µM (inactive)
- GI50 (SNB-19): > 100 µM (inactive)
- GI50 (SW-620): > 100 µM (inactive)
- GI50 (Malme-3M): > 100 µM (inactive)
- GI50 (HCT-15): 79.4 µM
- GI50 (ACHN): > 100 µM (inactive)
- GI50 (A498): > 100 µM (inactive)
- GI50 (SF-268): 74 µM (inactive)
- GI50 (EKVX): 55.8 µM (inactive)
- GI50 (NCI-H226): > 100 µM (inactive)
- GI50 (UACC-62): 94.6 µM (inactive)
- GI50 (RPMI-8226): 69.2 µM (inactive)

SMILES: C/C(=N\OCC(O)CNC(C)C)c1ccc2c(c1)NC(=O)CS2 (stereo not drawn)
- GI50 (DLD-1): > 100 µM (inactive)
- GI50 (SNB-78): > 100 µM (inactive)
- GI50 (SK-MEL-28): > 100 µM (inactive)
- GI50 (SK-MEL-5): > 100 µM (inactive)
- GI50 (RXF 393): > 100 µM (inactive)
- GI50 (OVCAR-5): > 100 µM (inactive)
- GI50 (HCT-116): > 100 µM (inactive)
- GI50 (HOP-18): > 100 µM (inactive)
- GI50 (HT-29): > 100 µM (inactive)
- GI50 (OVCAR-8): > 100 µM (inactive)
- GI50 (A549): > 100 µM (inactive)
- GI50 (M14): > 100 µM (inactive)
- GI50 (U-251): > 100 µM (inactive)
- GI50 (NCI-H460): > 100 µM (inactive)
- GI50 (UO-31): 91.2 µM (inactive)
- GI50 (HCC 2998): > 100 µM (inactive)
- GI50 (TK-10): > 100 µM (inactive)
- GI50 (OVCAR-4): > 100 µM (inactive)
- GI50 (NCI-H23): > 100 µM (inactive)
- GI50 (NCI-H522): > 100 µM (inactive)
- GI50 (LXFL 529): > 100 µM (inactive)
- GI50 (LOX IMVI): > 100 µM (inactive)
- GI50 (K562): > 100 µM (inactive)
- GI50 (MOLT-4): > 100 µM (inactive)
- GI50 (KM12): > 100 µM (inactive)
- GI50 (CCRF-CEM): > 100 µM (inactive)
- GI50 (M19-MEL): > 100 µM (inactive)
- GI50 (SK-MEL-2): > 100 µM (inactive)
- GI50 (786-0): > 100 µM (inactive)
- GI50 (SF-295): > 100 µM (inactive)
- GI50 (UACC-257): > 100 µM (inactive)
- GI50 (SF-539): > 100 µM (inactive)
- GI50 (HOP-62): > 100 µM (inactive)
- GI50 (SK-OV-3): > 100 µM (inactive)
- GI50 (SNB-75): 50.6 µM (inactive)
- GI50 (OVCAR-3): > 100 µM (inactive)
- GI50 (HOP-92): 42.1 µM (inactive)
- GI50 (COLO 205): > 100 µM (inactive)
- GI50 (KM-20L2): > 100 µM (inactive)
- GI50 (XF498): > 100 µM (inactive)
- GI50 (SN12C): > 100 µM (inactive)
- GI50 (DMS-114): > 100 µM (inactive)
- GI50 (SNB-19): > 100 µM (inactive)
- GI50 (SW-620): > 100 µM (inactive)
- GI50 (Malme-3M): > 100 µM (inactive)
- GI50 (HCT-15): > 100 µM
- GI50 (ACHN): > 100 µM (inactive)
- GI50 (A498): > 100 µM (inactive)
- GI50 (SF-268): > 100 µM (inactive)
- GI50 (EKVX): > 100 µM (inactive)
- GI50 (NCI-H226): > 100 µM (inactive)
- GI50 (UACC-62): > 100 µM (inactive)
